In assay [1] the target is T1, Nuclear receptor ROR-gamma (Homo sapiens) (UniProt P51449).
T1 sequence (whole entry): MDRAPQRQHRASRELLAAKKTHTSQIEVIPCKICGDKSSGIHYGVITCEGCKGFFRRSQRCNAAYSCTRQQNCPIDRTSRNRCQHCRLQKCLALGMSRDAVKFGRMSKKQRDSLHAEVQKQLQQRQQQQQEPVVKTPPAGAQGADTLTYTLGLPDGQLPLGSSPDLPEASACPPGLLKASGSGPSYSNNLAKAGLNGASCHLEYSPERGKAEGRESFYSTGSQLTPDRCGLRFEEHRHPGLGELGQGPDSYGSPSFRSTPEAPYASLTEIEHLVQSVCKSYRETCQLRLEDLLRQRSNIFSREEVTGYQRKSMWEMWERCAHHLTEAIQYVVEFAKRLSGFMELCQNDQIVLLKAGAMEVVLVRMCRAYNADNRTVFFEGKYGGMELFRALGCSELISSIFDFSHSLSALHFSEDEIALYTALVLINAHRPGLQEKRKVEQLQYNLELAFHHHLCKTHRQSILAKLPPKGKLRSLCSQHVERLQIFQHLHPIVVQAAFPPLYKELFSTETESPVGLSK
Description: Binding affinity to N-terminal His6-fused human RORgamma-LBD (262 to 507 residues) expressed in Escherichia coli BL21 (DE3) assessed as inhibition of thermal stability activity at 200 uM incubated for 30 mins by RT-PCR analysis

The target in assay [2] is T2, Nuclear receptor ROR-gamma (Homo sapiens, UniProt P51449).
T2 sequence (P51449 whole entry): T1 sequence (whole entry)
As to the kind of experiment: Displacement of N-terminal biotinylated SRC1-4 coactivator peptide from N-terminal His6-fused human RORgamma-LBD (262 to 507 residues) expressed in Escherichia coli BL21 (DE3) by luminescence-based Alphascreen assay.

Assay [3] deals with T2, Nuclear receptor ROR-gamma. In words: Inhibition of Gal4-RORgamma-LBD (180 to 507 residues) (unknown origin) expressed in HEK293T cells after 24 hrs by dual-luciferase reporter assay. The assay is classed as cell-based, HEK-293T.

Calls of active or inactive are those of the source. No cut-off for these calls is given here.

For the molecule `Cc1ccc(S(=O)(=O)N(CC(=O)NCc2ccc(F)cc2)c2cccc(C(F)(F)F)c2)cc1`, the ΔTm in assay [1] was determined as 1.07 °C. The IC50 in assay [2] (read-out: IC50) was 13.1 µM; in assay [3] (read-out: IC50), 7.51 µM.

As for `Cc1ccc(S(=O)(=O)N(CC(=O)Nc2nc(C)cs2)c2cccc(C(F)(F)F)c2)cc1`, the ΔTm in assay [1] worked out at 0.8 °C. Besides, the IC50 in assay [2] (read-out: IC50) amounted to 15.8 µM; in assay [3] (read-out: IC50) it was 3.65 µM.

Turning to `COC(=O)c1ccccc1NC(=O)CN(c1cccc(C(F)(F)F)c1)S(=O)(=O)c1ccc(C)cc1`, the ΔTm in assay [1] stood at 2.1 °C. For the same molecule, the concentration for half-maximal inhibition (IC50) in assay [3] (read-out: IC50) was 1.39 µM.

Regarding `Cc1ccc(S(=O)(=O)N(CC(=O)Nc2cccc(C(=O)O)c2)c2cccc(C(F)(F)F)c2)cc1`, in assay [3] (hek-293t), the IC50 result is listed as “Not Active”.

Regarding `Cc1ccc(S(=O)(=O)N(CC(=O)O)c2cccc(C(F)(F)F)c2)cc1`, the deltaTm entry in assay [1] was “inactive”. Besides, the figures for the IC50 in assay [2] (read-out: IC50) and in assay [3] (read-out: IC50) were 93.3 µM and 152 µM, respectively.

As for `Cc1ccc(S(=O)(=O)N(CC(=O)Nc2ccc(C#N)cc2)c2ccc(C#N)cc2)cc1`, the ΔTm in assay [1] amounted to 1.71 °C. Besides, the IC50 in assay [2] (read-out: IC50) was found to be 65.3 µM; in assay [3] (read-out: IC50), 1.31 µM.

Consider `Cc1ccc(S(=O)(=O)N(CC(=O)Nc2ccc(C#N)cc2)c2ccc(F)cc2)cc1`, for which, in assay [1], the ΔTm was 2.15 °C. Moreover, the half-maximal inhibitory concentration (IC50) in assay [2] (read-out: IC50) was 36.1 µM; in assay [3] (read-out: IC50) it was 0.91 µM.

`Cc1ccc(S(=O)(=O)N(CC(=O)Nc2ccc(C#N)cc2)c2cccc(C(F)(F)F)c2)cc1`: the ΔTm in assay [1] amounted to 3.5 °C. For the same molecule, the IC50 in assay [2] (read-out: IC50) is 0.77 µM; in assay [3] (read-out: IC50), 0.9 µM.

Turning to `Cc1ccc(S(=O)(=O)N(CC(=O)Nc2ccc(OCc3ccccc3)cc2)c2cccc(C(F)(F)F)c2)cc1`, the results for the IC50 in assay [2] (read-out: IC50) and in assay [3] (hek-293t) were 93.9 µM and “Not Active”, respectively.

Take `Cc1ccc(CNC(=O)CN(c2cccc(C(F)(F)F)c2)S(=O)(=O)c2ccc(C)cc2)cc1`: in assay [1], the ΔTm amounted to 1 °C. The values for the IC50 entry in assay [2] and in assay [3] (read-out: IC50) were “Not Active” and 27.2 µM, respectively.

As for `CCCCCCNC(=O)CN(c1cccc(C(F)(F)F)c1)S(=O)(=O)c1ccc(C)cc1`, the IC50 result in assay [2] and in assay [3] (hek-293t) was “Not Active” throughout.

For the molecule `COC(=O)c1cccc(NC(=O)CN(c2cccc(C(F)(F)F)c2)S(=O)(=O)c2ccc(C)cc2)c1`, the IC50 entry in assay [2] was “Not Active”; in assay [3] (read-out: IC50) it was 6.06 µM.

Take `CC(=O)N1CCN(C(=O)CN(c2cccc(C(F)(F)F)c2)S(=O)(=O)c2ccc(C)cc2)CC1`: in assay [1], the deltaTm entry was “inactive”. Moreover, the IC50 in assay [2] (read-out: IC50) is 175 µM; in assay [3] (read-out: IC50), 10.4 µM.

As for `Cc1ccc(N(CC(=O)Nc2ccc(C#N)cc2)S(=O)(=O)Cc2ccccc2)cc1`, the ΔTm in assay [1] was 1.71 °C. For the same molecule, the IC50 in assay [2] (read-out: IC50) was found to be 36.8 µM; in assay [3] (read-out: IC50) it was 0.63 µM.

For the molecule `Cc1ccc(S(=O)(=O)N(CC(=O)Nc2ccc(OC(F)(F)F)cc2)c2cccc(C(F)(F)F)c2)cc1`, the IC50 entry in assay [2] and in assay [3] (hek-293t) was “Not Active” throughout.

Regarding `COc1ccc(NC(=O)CN(c2cccc(C(F)(F)F)c2)S(=O)(=O)c2ccc(C)cc2)cc1OC`, in assay [1], the ΔTm worked out at 1.3 °C. Also, the IC50 in assay [2] (read-out: IC50) turned out to be 12.8 µM; in assay [3] (read-out: IC50), 2.44 µM.

As for `Cc1ccc(S(=O)(=O)N(CC(=O)NCc2ccc(O)cc2)c2cccc(C(F)(F)F)c2)cc1`, the ΔTm in assay [1] was found to be 1 °C. Also, the results for the IC50 in assay [2] (read-out: IC50) and in assay [3] (read-out: IC50) were 14.7 µM and 22.1 µM, respectively.

Regarding `Cc1ccc(S(=O)(=O)N(CC(=O)Nc2ccc(F)cc2)c2cccc(C(F)(F)F)c2)cc1`, the ΔTm in assay [1] worked out at 2.1 °C. Moreover, the IC50 in assay [2] (read-out: IC50) is 3.99 µM; in assay [3] (read-out: IC50), 3.37 µM.

As to `CC(=O)c1ccc(NC(=O)CN(c2cccc(C(F)(F)F)c2)S(=O)(=O)c2ccc(C)cc2)cc1`, the ΔTm in assay [1] is 1.25 °C. For the same molecule, the IC50 in assay [2] (read-out: IC50) was found to be 11.3 µM; in assay [3] (read-out: IC50), 0.59 µM.

On to `Cc1ccc(S(=O)(=O)N(CC(=O)NCc2ccncc2)c2cccc(C(F)(F)F)c2)cc1`, for which, in assay [1], the ΔTm was found to be 2.2 °C. Moreover, the figures for the IC50 in assay [2] (read-out: IC50) and in assay [3] (read-out: IC50) were 15.2 µM and 8.28 µM, respectively.

With `Cc1ccc(S(=O)(=O)N(CC(=O)Nc2ccc(C#N)cc2)c2ccc(Cl)c(Cl)c2)cc1`, the ΔTm in assay [1] turned out to be 3.5 °C. Further, the IC50 in assay [2] (read-out: IC50) was 0.22 µM; in assay [3] (read-out: IC50), 0.63 µM.

Turning to `COC(=O)c1ccc(NC(=O)CN(c2cccc(C(F)(F)F)c2)S(=O)(=O)c2ccc(C)cc2)cc1`, the ΔTm in assay [1] came to 1.15 °C. Also, the 50% inhibitory concentration (IC50) in assay [2] (read-out: IC50) came out at 11.8 µM; in assay [3] (read-out: IC50) it was 3.98 µM.

With `Cc1ccc(S(=O)(=O)N(CC(=O)Nc2ccc(F)cc2F)c2cccc(C(F)(F)F)c2)cc1`, the shift in melting temperature (ΔTm) in assay [1] stood at 1.8 °C. Further, the IC50 turned out to be 62.6 µM in assay [2] (read-out: IC50) and 4.54 µM in assay [3] (read-out: IC50).

With `COC(=O)c1ccc(CNC(=O)CN(c2cccc(C(F)(F)F)c2)S(=O)(=O)c2ccc(C)cc2)cc1`, the IC50 is 67.1 µM in assay [2] (read-out: IC50) and “Not Active” in assay [3] (hek-293t).

For `Cc1ccc(S(=O)(=O)N(CC(=O)Nc2ccc(C(O)(C(F)(F)F)C(F)(F)F)cc2)c2cccc(C(F)(F)F)c2)cc1`, the ΔTm in assay [1] was 0.5 °C. In assay [2] (read-out: IC50), the IC50 is 112 µM.

As to `Cc1ccc(N(CC(=O)Nc2ccc(C#N)cc2)S(=O)(=O)Cc2ccc(F)cc2)cc1`, the thermal shift (ΔTm) in assay [1] came out at 2.5 °C. Besides, the IC50 stood at 25.8 µM in assay [2] (read-out: IC50) and 1.78 µM in assay [3] (read-out: IC50).

With `Cc1ccc(S(=O)(=O)N(CC(=O)NC2CCCCC2)c2cccc(C(F)(F)F)c2)cc1`, the ΔTm in assay [1] amounted to 0.1 °C. Further, the half-inhibitory concentration (IC50) result in assay [2] is “Not Active”; in assay [3] (read-out: IC50), 1.03 µM.

Take `Cc1ccc(S(=O)(=O)N(CC(=O)Nc2ccc(C#N)cc2)c2ccc(C(F)(F)F)cc2)cc1`: the ΔTm in assay [1] worked out at 3.05 °C. Also, the half-maximal inhibitory concentration (IC50) in assay [2] (read-out: IC50) was determined as 1.07 µM; in assay [3] (read-out: IC50), 0.62 µM.

Regarding `Cc1ccc(S(=O)(=O)N(CC(=O)Nc2ccc(C(N)=O)cc2)c2cccc(C(F)(F)F)c2)cc1`, the thermal shift (ΔTm) in assay [1] was determined as 1.9 °C. The IC50 was determined as 35.1 µM in assay [2] (read-out: IC50) and 0.42 µM in assay [3] (read-out: IC50).

Regarding `Cc1ccc(N(CC(=O)Nc2ccc(C#N)cc2)S(=O)(=O)c2ccc(F)cc2)cc1`, the ΔTm in assay [1] amounted to 2.8 °C. Also, the IC50 was determined as 10.3 µM in assay [2] (read-out: IC50) and 1.45 µM in assay [3] (read-out: IC50).

On to `Cc1ccc(S(=O)(=O)N(CC(=O)Nc2ccc(O)cc2)c2cccc(C(F)(F)F)c2)cc1`, for which the thermal shift (ΔTm) in assay [1] is 1.6 °C. The IC50 in assay [2] (read-out: IC50) turned out to be 13.6 µM; in assay [3] (read-out: IC50) it was 8.34 µM.

In general, ΔTm refers to the shift of the melting midpoint relative to a reference. As a reminder, the IC50 is the concentration needed to halve the response being measured.

The values are drawn from ChEMBL document CHEMBL3797166, “Identification of N-phenyl-2-(N-phenylphenylsulfonamido)acetamides as new RORγ inverse agonists: Virtual screening, structure-based optimization, and biological evaluation” (Eur J Med Chem, 2016).
